Structures are written as SMILES. Numbers after ± are expanded uncertainties.

As a reminder, the mass density is the mass of a sample divided by its volume.

For the data set the following is noted: 101.33 kPa, Liquid, Vibrating tube method.

Consider `CCCCOCCO` [2-butoxyethan-1-ol], for which the mass density (293.15 K) worked out at 900.64 ± 0.15 kg/m3 and the mass density (313.15 K) is 883.8 ± 0.15 kg/m3.

Take `CCCCCCCC` [octane]: the mass density (293.15 K) was 702.64 ± 0.32 kg/m3 and the mass density (313.15 K) was found to be 686.39 ± 0.32 kg/m3.

Source of the values: the NIST ThermoML archive (doi:10.1016/j.fluid.2015.04.019).
